Laboratory results taken from patent US8642259B2, “Method for identifying substances capable of modulating the activity of a target molecule” (Sanofi-Aventis Deutschland GmbH, priority 2002, dated 2014).

How the values were obtained:
[1] = tested on: human M1 muscarinic receptor, somatostatin receptor 2 and EDG5
Procedure: The human GPCRs cloned into vector p426GPD are transformed into the appropriate yeast strain and incubated on SC selection plates without uracil and with 2% glucose as carbon source (SC/Gluc-Ura) at 30° C. for 3 days. The single cell colonies thus obtained are then utilized in order to inoculate 2 ml overnight cultures in SC/Gluc-Ura. The next day, the cells are diluted 1:100 in SC/Gluc-Ura-His pH 6.8. In the case of yeast strains using the FUS1 promoter for reporter gene expression, 2-10 mM 3-aminotriazole (3-AT, Sigma) are additionally added to said medium. In each case 90 μl of the diluted cell suspension are pipetted into a well of a 96-well microtiter plate, which already contains 10 μl of the ligand to be studied. The plates are incubated with or without shaking at 30° C. for 5-24 h. This is followed by adding to each well 50 μl of assay mix. The assay mix consists of 150 μg/ml digitonin (Sigma), 300 μg/ml chlorophenol red β-D-galactopyranoside (CPRG, Roche), 300 mM sodium phosphate buffer pH 6.7. After incubation with or without shaking at 30° C. for 2 h, β-galactosidase activity is measured as absorption at 574 nm in a spectrophotometer (Spectramax Plus, Molecular Devices). The data are analyzed and dose-response curves are drawn using the Graphpad Prism 3.0 computer program. All measurements are averages from triplicate determinations. […]

human GPCR EDG5 = target: T1, human GPCR EDG5 (Homo sapiens, UniProt O95136); experiment: Growth readout (FUS1-HIS3, turbidity at 630 nm), yeast strain YLJ21 expressing EDG5; assay type: cell-based; settings: 2 mM 3-AT; 23 h at 30° C.; FIG. 3B left-hand graph
T1 construct: expressed in transfected cells; host or cells: Saccharomyces cerevisiae strain YLJ21 (endogenous Gpa1), episomal vector p426GPD
Procedure: (§1) The human GPCRs cloned into vector p426GPD are transformed into the appropriate yeast strain and incubated on SC selection plates without uracil and with 2% glucose as carbon source (SC/Gluc-Ura) at 30° C. for 3 days. The single cell colonies thus obtained are then utilized in order to inoculate 2 ml overnight cultures in SC/Gluc-Ura. The next day, the cells are diluted 1:100 in SC/Gluc-Ura-His pH 6.8. In the case of yeast strains using the FUS1 promoter for reporter gene expression, 2-10 mM 3-aminotriazole (3-AT, Sigma) are additionally added to said medium. In each case 90 μl of the diluted cell suspension are pipetted into a well of a 96-well microtiter plate, which already contains 10 μl of the ligand to be studied. The plates are incubated with or without shaking at 30° C. for 5-24 h. […] All measurements are averages from triplicate determinations. […] The transformed yeasts were then cultivated in 2 ml of SC/Gluc-Ura at 30° C. overnight. The next day, the cultures were diluted 1:100 in SC/Gluc-Ura-His pH 6.8 medium without (FIG. 3A) or with 2 mM 3-AT (FIG. 3B). […] The turbidity resulting from growth of the yeast cells was measured at 630 nm in the photometer (FIGS. 3A and B, in each case left-hand graph).

human GPCR EDG1 = human GPCR EDG1 (Homo sapiens, UniProt P21453); experiment: Growth readout (FUS1-HIS3, turbidity at 630 nm), yeast strain YLJ21 expressing EDG1; assay type: cell-based; settings: 2 mM 3-AT; 23 h at 30° C.; FIG. 3B left-hand graph
human GPCR EDG1, sequence (P21453 whole entry): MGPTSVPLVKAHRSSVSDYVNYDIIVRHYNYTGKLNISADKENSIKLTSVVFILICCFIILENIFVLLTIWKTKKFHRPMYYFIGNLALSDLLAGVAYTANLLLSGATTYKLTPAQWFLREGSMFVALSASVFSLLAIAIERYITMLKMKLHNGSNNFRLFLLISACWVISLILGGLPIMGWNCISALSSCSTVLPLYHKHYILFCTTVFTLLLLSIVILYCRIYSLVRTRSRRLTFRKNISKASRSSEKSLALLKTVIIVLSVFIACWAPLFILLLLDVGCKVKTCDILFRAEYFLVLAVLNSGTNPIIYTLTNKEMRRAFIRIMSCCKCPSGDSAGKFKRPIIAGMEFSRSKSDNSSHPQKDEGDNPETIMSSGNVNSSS
Procedure: as §1

T1 sequence (O95136 whole entry): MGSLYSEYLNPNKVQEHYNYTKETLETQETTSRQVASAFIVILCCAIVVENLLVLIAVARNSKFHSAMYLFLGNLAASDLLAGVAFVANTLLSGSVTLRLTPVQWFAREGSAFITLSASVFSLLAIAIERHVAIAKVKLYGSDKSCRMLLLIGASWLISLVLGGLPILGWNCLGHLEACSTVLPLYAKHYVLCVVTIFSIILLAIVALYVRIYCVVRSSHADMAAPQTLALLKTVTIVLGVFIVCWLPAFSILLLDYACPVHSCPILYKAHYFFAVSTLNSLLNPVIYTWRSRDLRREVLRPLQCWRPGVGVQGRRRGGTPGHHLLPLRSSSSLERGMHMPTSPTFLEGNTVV

Row | Compound | detection of the agonist in the receptor mixture [1] | dose dependence of the measured signal (turbidity at 630 nm) (human GPCR EDG5) | dose dependence of the measured signal (turbidity at 630 nm) (human GPCR EDG1)
1 | somatostatin-14 | can also be detected in the mixture |  | 
2 | CCCCCCCCCCCCC/C=C/[C@@H](O)[C@@H](N)COP(=O)(O)O [sphingosine 1-phosphate] | can also be detected in the mixture | level of the measured signal is dependent on the amount of sphingosine 1-phosphate | level of the measured signal is dependent on the amount of sphingosine 1-phosphate
